Laboratory results taken from the supplement of paper PMC10307832.

What was measured:
Assay in all cases: relative viability (nuclei count vs DMSO), 5 days (fraction); higher = more cells survive
[1] = compound: CC[C@H](Nc1ncnc2[nH]cnc12)c1nc2cccc(F)c2c(=O)n1-c1ccccc1 [Idelalisib] + COc1cccc2cc(-c3nc([C@H]4CC[C@H](C(=O)O)CC4)n4ncnc(N)c34)[nH]c12 [OSI-027] (partner 0.5 µM)
How it was run: (§1)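 Dosing by pin tool came one day after lung cancer cell lines were seeded in 1536-well plates, using either one drug or a fixed anchor-drug dose plus five library-drug doses (not always all listed) in √10 steps. After 5 days, nuclei were counted on 4× images. Relative viability is treated-well nuclei count divided by vehicle-well nuclei count, and values are medians of duplicate plates.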

[2] = compound: CC[C@H](Nc1ncnc2[nH]cnc12)c1nc2cccc(F)c2c(=O)n1-c1ccccc1 [Idelalisib] + Cc1nc(NC(=O)N2CCC[C@H]2C(N)=O)sc1-c1ccnc(C(C)(C)C(F)(F)F)c1 [Alpelisib] (partner 2 µM)
How it was run: as §1

[3] = compound: CC[C@H](Nc1ncnc2[nH]cnc12)c1nc2cccc(F)c2c(=O)n1-c1ccccc1 [Idelalisib] + Nc1nc2[nH]cc(CCc3ccc(C(=O)N[C@@H](CCC(=O)O)C(=O)O)cc3)c2c(=O)[nH]1 [Pemetrexed] (partner 0.2 µM)
How it was run: as §1

[4] = compound: CC[C@H](Nc1ncnc2[nH]cnc12)c1nc2cccc(F)c2c(=O)n1-c1ccccc1 [Idelalisib] + O=C(c1cc(Cc2n[nH]c(=O)c3ccccc23)ccc1F)N1CCN(C(=O)C2CC2)CC1 [Olaparib] (partner 8 µM)
How it was run: as §1

Cell Line | relative viability ([1]; first compound 0.04 µM) | relative viability ([1]; first compound 0.1265 µM) | relative viability ([1]; first compound 0.4 µM) | relative viability ([1]; first compound 1.265 µM) | relative viability ([1]; first compound 4 µM) | relative viability ([2]; first compound 0.04 µM) | relative viability ([2]; first compound 0.1265 µM) | relative viability ([2]; first compound 0.4 µM) | relative viability ([2]; first compound 1.265 µM) | relative viability ([2]; first compound 4 µM) | relative viability ([3]; first compound 0.04 µM) | relative viability ([3]; first compound 0.1265 µM) | relative viability ([3]; first compound 0.4 µM) | relative viability ([3]; first compound 1.265 µM) | relative viability ([3]; first compound 4 µM) | relative viability ([4]; first compound 0.04 µM) | relative viability ([4]; first compound 0.1265 µM) | relative viability ([4]; first compound 0.4 µM) | relative viability ([4]; first compound 1.265 µM) | relative viability ([4]; first compound 4 µM)
NCI-H358 | 0.773 | 0.875 | 0.554 | 0.695 | 0.72 | 1.03 | 0.894 | 0.857 | 0.94 | 0.719 | 0.18 | 0.171 | 0.182 | 0.168 | 0.157 | 0.562 | 0.586 | 0.522 | 0.606 | 0.516
SK-LU-1 | 0.383 | 0.39 | 0.27 | 0.369 | 0.272 | 1.43 | 1.12 | 0.886 | 0.876 | 0.968 | 0.86 | 1.06 | 0.943 | 0.919 | 0.967 | 0.584 | 0.492 | 0.41 | 0.424 | 0.464
H3255 | 0.721 | 0.566 | 0.558 | 0.517 | 0.534 | 0.652 | 0.683 | 0.591 | 0.518 | 0.607 | 0.692 | 0.551 | 0.55 | 0.561 | 0.488 | 0.567 | 0.555 | 0.534 | 0.573 | 0.513
LOU-NH91 | 0.776 | 0.732 | 0.687 | 0.517 | 0.708 | 0.762 | 0.705 | 0.634 | 0.59 | 0.641 | 0.369 | 0.414 | 0.392 | 0.408 | 0.408 | 0.986 | 0.936 | 0.856 | 0.848 | 0.912
NCI-H1666 | 0.889 | 0.895 | 0.782 | 0.83 | 0.759 | 1.03 | 0.909 | 0.89 | 0.888 | 0.747 | 0.821 | 0.835 | 0.844 | 0.847 | 0.996 | 0.704 | 0.758 | 0.733 | 0.747 | 0.724
